Measured values from PubChem BioAssay AID1626 (SRMLSC, 2009).

Test system: M. tuberculosis H37Rv growth inhibition
Experiment: M. tuberculosis H37Rv growth inhibitors, H37Rv strain (AID 1626)
Conditions: for IC90: measured here: IC90 against H37Rv; for CC50: measured here: Vero cell cytotoxicity

| Compound | IC50 | IC90 | CC50 |
| --- | --- | --- | --- |
| CSc1nsc(SCC(=O)Nc2ccc(OC(C)=O)cc2)n1 | 2.56 µM | 3.79 µM | – |
| COC(=O)c1cc(/C=C/c2ccccc2)on1 | 1.33 µM | > 100 µM | – |
| O=C(CCc1ccc(Oc2cc([N+](=O)[O-])cc([N+](=O)[O-])c2)cc1)N1CCCCCC1 | 7.53 µM | 15.6 µM | 37.2 µM |
| Cn1c(NC(=O)c2cccc(Cn3cc(Cl)cn3)c2)nc2ccccc21 | – | – | > 40 µM |
| Cc1ccccc1-n1ncc2c([N+](=O)[O-])cc([N+](=O)[O-])cc21 | 2.97 µM | 4.48 µM | > 40 µM |
| CCOC(=O)c1cc(COc2cc(Cl)cc(Cl)c2)on1 | 3.01 µM | 21.6 µM | – |
| Cc1nc(N/C(N)=N/S(=O)(=O)c2ccc([N+](=O)[O-])cc2)nc2ccccc12 | 9.12 µM | > 100 µM | > 40 µM |
| COc1cnc(-c2ccccn2)nc1Oc1ccc(F)cc1F | 19.1 µM | > 100 µM | > 40 µM |
| Nc1nc2c(s1)COc1ccccc1-2 | – | > 100 µM | – |
| O=C(NCc1ccco1)c1cc2n(n1)C(C(F)(F)F)CC(c1ccc(Cl)c(Cl)c1)N2 (centres undefined) | – | > 100 µM | > 40 µM |
| CSc1nc2ccc(NC(=O)C3CC(=O)N(Cc4ccccc4)C3)cc2s1 (centres undefined) | 5.17 µM | 7.75 µM | – |
| Cc1nc2ncccn2c1-c1csc(Nc2ccc(N(C)C)cc2)n1 | 12.8 µM | 16 µM | 3.47 µM |
| O=C(Nc1nc(-c2ccncc2)cs1)C1c2ccccc2Oc2ccccc21 | – | – | > 40 µM |
| O=[N+]([O-])c1cc(O)c2ncccc2c1 | 2.71 µM | 3.39 µM | 7.36 µM |
| O=C(CCNc1ccc(Cl)c(C(F)(F)F)c1)c1ccco1 | 49.3 µM | > 100 µM | – |
| CCOC(=O)c1ccc(NC(=O)CCOc2ccc(OC)cc2)cc1 | 9.49 µM | > 100 µM | – |
| CCOC(=O)c1ccc(NCc2nc3ccccc3[nH]2)cc1 | 43.5 µM | > 100 µM | – |
| COc1ccc(NC2(C#N)CCCCC2)cc1 | – | > 100 µM | – |
| CCCOc1ccc(-c2nc(C#N)c(NCCCn3ccnc3)o2)cc1 | 15 µM | > 100 µM | > 40 µM |
| CCCCOc1ccc(NC(=O)CSc2nnnn2C)cc1 | 34 µM | > 100 µM | – |
| Cc1nc(N2CCOCC2)c2c(C)c(C(=O)Nc3ccc(C(F)(F)F)cc3)sc2n1 | – | – | > 40 µM |
| COc1cc(CNC(C)c2ccccc2)cc(Cl)c1OCC(=O)Nc1ccccc1 (centres undefined) | 3.1 µM | 3.39 µM | > 40 µM |

| Compound | IC50 | IC90 | CC50 |
| --- | --- | --- | --- |
| CCCOC(=O)CSc1nc(N)c(C#N)c(-c2ccco2)c1C#N | < 0.195 µM | 0.907 µM | – |
| CSc1nc2nc(C)c(C/C=C/c3ccccc3)c(=O)n2[nH]1 | 11.4 µM | > 100 µM | – |
| COc1ccccc1C(=O)Nc1nnc(-c2ccc(Cl)cc2)o1 | 16.9 µM | > 100 µM | > 40 µM |
| N=C1S/C(=C\c2ccc(-c3cccc(Cl)c3)o2)C(=O)N1c1nccs1 | < 0.195 µM | 13.9 µM | 5.77 µM |
| O=C(CSc1nc2ccccc2[nH]1)N1c2ccccc2Sc2ccccc21 | 17.4 µM | > 100 µM | > 40 µM |
| CCn1ccnc1CN(C)Cc1cn(-c2ccc(C)cc2)nc1-c1cccc(C)c1 | 2.73 µM | 3.64 µM | > 40 µM |
| O=C(CSCC(=O)Nc1ccc2ccccc2c1)NCc1ccccc1 | 35.4 µM | > 100 µM | – |
| Cc1cc(C)cc(OCc2nnc(SCC(=O)OC3CCCCC3)o2)c1 | 1.83 µM | 11.8 µM | – |
| Cc1ccc(Cl)cc1NC1=C/C(=N\S(=O)(=O)c2cccs2)c2ccccc2C1=O | 1.91 µM | 3.21 µM | 5.83 µM |
| CCOC(=O)C1CCCN(c2ccc([N+](=O)[O-])c3nonc23)C1 (centres undefined) | 1.46 µM | 1.6 µM | – |
| O=C(CSc1ncnc2sc3c(c12)CCCC3)N1CCC(c2noc3ccc(F)cc23)CC1 | 2.94 µM | 4.24 µM | > 40 µM |
| O=C(/C=C/c1ccccc1O)c1ccc(Cl)cc1 | 14.4 µM | 24.1 µM | 27 µM |
| O=C(Nc1nc(-c2cc(F)ccc2F)cs1)c1ccccn1 | 3.8 µM | 67.8 µM | 21.2 µM |
| CC1CCN(C(=O)COC(=O)CCc2c[nH]c3ccccc23)CC1 | 0.34 µM | > 100 µM | – |
| Cn1c(O)c(C=Nc2ccccc2-c2ccccc2)c(=O)n(C)c1=O | – | – | > 40 µM |
| Clc1ccc(-c2ccc(C=Nc3ccc(N4CCOCC4)cc3)o2)cc1 | 7.5 µM | > 100 µM | – |
| O=S(=O)(Nc1nc2ccccc2nc1Nc1ccc(N2CCOCC2)cc1)c1cc(Cl)ccc1Cl | – | > 100 µM | 22.3 µM |
| O=C(COC(=O)c1cccs1)c1ccc2c(c1)OCCO2 | 8.66 µM | 19.2 µM | – |
| CCN(CC)CCC(c1ccc2c(c1)OCO2)c1c(OC)cc(OC)c2c(-c3ccccc3)cc(=O)oc12 (centres undefined) | 13.4 µM | 21.3 µM | 16.5 µM |
| Nc1ccc(Oc2ccc(Br)cc2)cc1 | 30.8 µM | > 100 µM | – |
| O=C(/C=C/c1ccc(Cl)cc1Cl)c1cccnc1 | 2.97 µM | 3.35 µM | 30.6 µM |
| CCOc1ccc(NC(=O)Nc2ccccc2SC)cc1 | – | – | > 40 µM |
